In patent publication US10392368B2, “Pyrazolo and triazolo bicyclic compounds as JAK kinase inhibitors” (THERAVANCE BIOPHARMA R&D IP, LLC, priority 2017, dated 2019):
Where two headings read alike, the source gives them in different places.

Assays:
JAK2 = target: T1, JAK2 (Homo sapiens, UniProt O60674); test: Biochemical JAK2 kinase assay (LanthaScreen); settings: for Ki: read-out: JAK 2 (pKi) (converted)
T1 construct: GST; purchased Life Technologies
In short: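 pKi values derive from pIC50 via Cheng-Prusoff, with IC50 from a 4-parameter fit of percent-inhibition TR-FRET data using Tb-anti-pSTAT1 (pTyr701) detection. Compound, GST-JAK2 and GFP-STAT1 substrate were pre-incubated 1 h, then ATP started a 1 h ambient reaction (HEPES pH 7.5, 10 mM MgCl2, 1% DMSO).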

Tyk2 = target: T2, Tyk2 (Homo sapiens, UniProt P29597); test: Biochemical Tyk2 kinase assay (LanthaScreen); settings: for Ki: read-out: Tyk 2 (pKi) (converted)
T2 construct: GST; purchased Life Technologies
T2 sequence (P29597 whole entry): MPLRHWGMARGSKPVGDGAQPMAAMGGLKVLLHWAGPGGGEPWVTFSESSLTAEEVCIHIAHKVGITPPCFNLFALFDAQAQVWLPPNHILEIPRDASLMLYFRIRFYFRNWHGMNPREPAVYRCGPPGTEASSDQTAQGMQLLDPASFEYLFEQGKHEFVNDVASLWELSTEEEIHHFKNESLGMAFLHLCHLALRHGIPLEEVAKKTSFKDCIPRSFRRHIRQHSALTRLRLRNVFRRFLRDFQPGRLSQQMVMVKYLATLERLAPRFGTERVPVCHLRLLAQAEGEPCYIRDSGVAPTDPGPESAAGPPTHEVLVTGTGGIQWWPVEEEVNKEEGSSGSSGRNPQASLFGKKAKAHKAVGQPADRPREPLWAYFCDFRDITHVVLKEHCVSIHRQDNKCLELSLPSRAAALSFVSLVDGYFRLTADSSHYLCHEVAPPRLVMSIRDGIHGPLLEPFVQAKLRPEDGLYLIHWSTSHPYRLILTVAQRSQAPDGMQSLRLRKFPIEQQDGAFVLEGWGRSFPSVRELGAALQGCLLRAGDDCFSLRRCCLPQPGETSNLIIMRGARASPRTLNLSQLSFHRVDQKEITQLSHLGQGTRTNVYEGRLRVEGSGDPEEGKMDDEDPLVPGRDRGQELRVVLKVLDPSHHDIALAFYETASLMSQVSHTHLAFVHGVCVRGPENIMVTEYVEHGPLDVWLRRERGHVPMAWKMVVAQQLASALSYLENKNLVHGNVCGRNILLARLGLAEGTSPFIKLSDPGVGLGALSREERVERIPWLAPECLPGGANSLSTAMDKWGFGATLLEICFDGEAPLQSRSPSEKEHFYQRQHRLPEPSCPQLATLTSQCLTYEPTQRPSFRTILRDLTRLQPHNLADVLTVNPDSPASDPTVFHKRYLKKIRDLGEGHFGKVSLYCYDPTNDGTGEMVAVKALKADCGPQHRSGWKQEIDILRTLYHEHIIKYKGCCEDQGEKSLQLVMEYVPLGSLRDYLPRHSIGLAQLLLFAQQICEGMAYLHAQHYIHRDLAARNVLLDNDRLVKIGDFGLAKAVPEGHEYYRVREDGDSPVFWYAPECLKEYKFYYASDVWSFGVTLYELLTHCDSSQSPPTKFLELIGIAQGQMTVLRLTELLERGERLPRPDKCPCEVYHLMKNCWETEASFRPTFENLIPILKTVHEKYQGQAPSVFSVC
In short: (§1)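 TR-FRET readout (520/495 nm) using Tb-labelled pTyr701 antibody after EDTA stop, following 1 h ATP-started phosphorylation of GFP-STAT1 by recombinant GST-JAK. Compounds preincubated 1 h with enzyme and substrate; pIC50 from 4-parameter fit, Cheng-Prusoff gives pKi.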

JAK3 = target: T3, JAK3 (Homo sapiens, UniProt P52333); test: Biochemical JAK3 kinase assay (LanthaScreen); design: GST; purchased Life Technologies; settings: for Ki: read-out: JAK 3 (pKi) (converted)
T3 sequence (P52333 1-1124): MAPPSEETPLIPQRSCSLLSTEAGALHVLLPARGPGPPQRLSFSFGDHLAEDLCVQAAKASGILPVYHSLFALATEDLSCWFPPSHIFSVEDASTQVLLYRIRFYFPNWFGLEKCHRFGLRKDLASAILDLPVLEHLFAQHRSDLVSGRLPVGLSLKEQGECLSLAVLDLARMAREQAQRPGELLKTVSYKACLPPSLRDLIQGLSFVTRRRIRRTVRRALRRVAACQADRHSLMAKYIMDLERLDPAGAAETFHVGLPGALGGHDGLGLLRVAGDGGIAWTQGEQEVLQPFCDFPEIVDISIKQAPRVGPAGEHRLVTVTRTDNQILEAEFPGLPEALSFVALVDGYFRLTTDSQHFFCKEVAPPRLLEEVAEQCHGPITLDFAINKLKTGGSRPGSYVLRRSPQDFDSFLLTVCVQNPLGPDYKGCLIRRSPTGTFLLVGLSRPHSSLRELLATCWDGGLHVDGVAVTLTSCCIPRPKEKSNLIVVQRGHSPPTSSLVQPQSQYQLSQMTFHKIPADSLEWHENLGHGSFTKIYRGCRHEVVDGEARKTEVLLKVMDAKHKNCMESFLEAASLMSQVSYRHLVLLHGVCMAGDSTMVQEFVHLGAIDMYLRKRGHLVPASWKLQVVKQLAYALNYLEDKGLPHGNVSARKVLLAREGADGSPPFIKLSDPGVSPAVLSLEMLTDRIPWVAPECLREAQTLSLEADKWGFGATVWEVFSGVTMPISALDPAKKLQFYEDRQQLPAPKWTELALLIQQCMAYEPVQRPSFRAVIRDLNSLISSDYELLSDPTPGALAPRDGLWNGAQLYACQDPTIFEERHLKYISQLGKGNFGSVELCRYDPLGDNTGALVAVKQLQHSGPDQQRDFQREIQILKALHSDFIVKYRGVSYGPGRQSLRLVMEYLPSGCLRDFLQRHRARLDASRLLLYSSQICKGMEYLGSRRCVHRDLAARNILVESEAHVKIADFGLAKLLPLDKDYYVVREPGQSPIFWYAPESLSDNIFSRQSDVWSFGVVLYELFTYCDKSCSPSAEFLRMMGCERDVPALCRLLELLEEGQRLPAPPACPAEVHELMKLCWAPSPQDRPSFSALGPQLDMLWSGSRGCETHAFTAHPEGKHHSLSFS
In short: as §1

[1] = test system: IL-2 stimulated pSTAT5 in Tall-1 T cells; test: Cellular JAK3 potency assay: inhibition of IL-2 stimulated pSTAT5 in Tall-1 T cells; assay type: cell-based, human; settings: for IC50: Homo sapiens, read-out: Tall-1 (pIC50) (converted)
In short: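 Inhibition of IL-2-induced pSTAT5 was quantified by AlphaLisa in Tall-1 cell lysates. Compound exposure lasted 1 h before 30 min stimulation with 300 ng/ml IL-2 final.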

JAK1 = target: T4, JAK1 (Homo sapiens, UniProt P23458); test: Biochemical JAK1 kinase assay (LanthaScreen); settings: for Ki: read-out: JAK 1 (pKi) (converted)
T4 construct: GST; purchased Life Technologies
T4 sequence (P23458 whole entry): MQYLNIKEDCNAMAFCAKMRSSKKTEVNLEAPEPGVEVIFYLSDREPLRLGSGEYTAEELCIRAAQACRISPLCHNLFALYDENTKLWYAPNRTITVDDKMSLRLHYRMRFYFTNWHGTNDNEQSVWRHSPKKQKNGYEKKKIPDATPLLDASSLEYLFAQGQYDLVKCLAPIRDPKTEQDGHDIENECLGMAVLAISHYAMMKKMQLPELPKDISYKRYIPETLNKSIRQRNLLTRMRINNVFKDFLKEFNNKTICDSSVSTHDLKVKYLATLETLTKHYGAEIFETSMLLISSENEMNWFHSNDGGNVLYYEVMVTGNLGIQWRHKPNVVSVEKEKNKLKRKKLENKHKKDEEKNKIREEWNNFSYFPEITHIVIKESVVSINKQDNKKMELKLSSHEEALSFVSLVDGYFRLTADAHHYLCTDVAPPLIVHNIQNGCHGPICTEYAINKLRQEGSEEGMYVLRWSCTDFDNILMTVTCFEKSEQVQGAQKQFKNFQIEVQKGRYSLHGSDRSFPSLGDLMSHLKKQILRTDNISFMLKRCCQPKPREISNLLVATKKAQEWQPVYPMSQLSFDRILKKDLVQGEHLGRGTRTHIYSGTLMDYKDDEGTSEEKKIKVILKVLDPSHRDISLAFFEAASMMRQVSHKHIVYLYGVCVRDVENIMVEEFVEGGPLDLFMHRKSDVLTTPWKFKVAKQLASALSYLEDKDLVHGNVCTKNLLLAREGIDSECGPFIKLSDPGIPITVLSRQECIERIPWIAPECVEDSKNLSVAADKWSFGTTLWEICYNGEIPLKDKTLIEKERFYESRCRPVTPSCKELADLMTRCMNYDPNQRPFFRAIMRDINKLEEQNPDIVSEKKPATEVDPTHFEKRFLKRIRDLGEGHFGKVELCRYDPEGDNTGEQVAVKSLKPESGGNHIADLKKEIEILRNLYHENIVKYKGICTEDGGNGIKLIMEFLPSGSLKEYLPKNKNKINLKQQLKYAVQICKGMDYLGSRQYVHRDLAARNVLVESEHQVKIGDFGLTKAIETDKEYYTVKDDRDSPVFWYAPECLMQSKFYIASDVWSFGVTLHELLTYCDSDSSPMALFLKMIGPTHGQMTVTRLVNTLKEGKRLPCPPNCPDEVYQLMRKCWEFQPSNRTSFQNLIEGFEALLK
In short: as §1

[2] = selectivity: difference of pKi JAK3 and pKi JAK1
[3] = IL-2 stimulated pSTAT5 in Tall-1 T cells
[4] = selectivity JAK3 over JAK1, difference of pKi
[5] = IL-2 stimulated pSTAT5, Tall-1 T cells
[6] = TALL-1, IL-2 stimulated pSTAT5, Tall-1 T cells
[7] = TALL-1, IL-2 stimulated pSTAT5 in Tall-1 T cells

T1 sequence (O60674 whole entry): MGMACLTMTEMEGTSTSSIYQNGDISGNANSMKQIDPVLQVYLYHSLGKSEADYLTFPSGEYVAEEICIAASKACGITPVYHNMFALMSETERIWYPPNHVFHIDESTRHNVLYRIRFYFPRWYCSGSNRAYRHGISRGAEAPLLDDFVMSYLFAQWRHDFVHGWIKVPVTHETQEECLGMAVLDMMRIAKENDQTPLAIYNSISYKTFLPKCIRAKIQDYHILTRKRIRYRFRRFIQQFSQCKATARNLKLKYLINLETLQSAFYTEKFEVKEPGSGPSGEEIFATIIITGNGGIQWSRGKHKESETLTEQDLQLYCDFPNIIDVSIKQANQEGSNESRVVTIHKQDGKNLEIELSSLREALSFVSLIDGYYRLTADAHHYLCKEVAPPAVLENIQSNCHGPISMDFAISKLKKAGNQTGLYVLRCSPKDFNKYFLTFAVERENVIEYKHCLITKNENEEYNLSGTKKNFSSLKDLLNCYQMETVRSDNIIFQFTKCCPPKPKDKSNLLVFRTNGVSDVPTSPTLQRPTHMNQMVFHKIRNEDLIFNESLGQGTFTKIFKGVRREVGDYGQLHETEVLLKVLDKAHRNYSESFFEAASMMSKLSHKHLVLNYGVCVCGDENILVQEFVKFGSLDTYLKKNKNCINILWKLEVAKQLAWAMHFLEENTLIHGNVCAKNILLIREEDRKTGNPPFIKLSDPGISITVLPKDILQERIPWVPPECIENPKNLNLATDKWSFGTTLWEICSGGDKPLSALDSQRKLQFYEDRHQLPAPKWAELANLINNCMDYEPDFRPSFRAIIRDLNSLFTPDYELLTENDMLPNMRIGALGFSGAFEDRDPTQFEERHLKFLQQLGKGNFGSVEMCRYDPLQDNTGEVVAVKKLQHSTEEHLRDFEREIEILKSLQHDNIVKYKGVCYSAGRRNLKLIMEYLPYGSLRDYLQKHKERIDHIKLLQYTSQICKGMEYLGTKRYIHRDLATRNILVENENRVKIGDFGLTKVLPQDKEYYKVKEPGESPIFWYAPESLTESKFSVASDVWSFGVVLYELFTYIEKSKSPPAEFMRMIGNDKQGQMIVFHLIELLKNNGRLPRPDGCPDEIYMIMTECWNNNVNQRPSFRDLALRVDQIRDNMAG

Structure (SMILES)	JAK 2 (pKi) (JAK2)	Tyk 2 (pKi) (Tyk2)	JAK 3 (pKi) (JAK3)	JAK3 (pKi)-JAK1 (pKi) (JAK3; [2])	Tall-1 (pIC50) [1, 3]	JAK 1 (pKi) (JAK1)	JAK3 (pKi)-JAK1 (pKi) (JAK3; [4])	Tall-1 (pIC50) [1, 5]	Ki (JAK2)	Ki (Tyk2)	Ki (JAK3)	IC50 [1, 6]	Ki (JAK1)	IC50 [1, 7]
CCC1(COc2cc(-c3ccc(O)cc3)cc3[nH]ncc23)CN(C(=O)/C=C/CN(C)C)C1 [Compound 3-13]	D (a pKi value between 7 and 8 (Ki between 100 nM and 10 nM))	E (a pKi value of 7 or below (Ki of 100 nM or above))	B (a pKi value between 9 and 10 (Ki between 1 nM and 0.1 nM))	A (a value of 3 or above)	A (a pIC50 value≥7.5 (IC50≤32 nM))	E (a pKi value of 7 or below (Ki of 100 nM or above))								
C=CC(=O)N1CC[C@@H](COc2cc(-c3ccc(O)cc3)cc3[nH]ncc23)C1 [Compound 12-20]	D (a pKi value between 7 and 8 (Ki between 100 nM and 10 nM))	E (a pKi value of 7 or below (Ki of 100 nM or above))	B (a pKi value between 9 and 10 (Ki between 1 nM and 0.1 nM))			E (a pKi value of 7 or below (Ki of 100 nM or above))	A (a value of 3 or above)	A (a pIC50 value≥7.5 (IC50≤32 nM))						
CN(C)C/C=C/C(=O)N1CCC(COc2cc(-c3ccc(O)cc3)cc3[nH]ncc23)CC1 [Compound 12-26]							B (a value of 2.3 to 3)		10 to 100 nM	> 100 nM	0.1 to 1 nM	200 to 1000 nM	> 100 nM	
C=CC(=O)N1CCC(C)(Nc2cc(-c3ccc(O)c(Cl)c3)cc3[nH]ncc23)CC1 [Compound 7-11]	D (a pKi value between 7 and 8 (Ki between 100 nM and 10 nM))	E (a pKi value of 7 or below (Ki of 100 nM or above))	A (a pKi value≥10 (Ki≤0.1 nM))			E (a pKi value of 7 or below (Ki of 100 nM or above))	A (a value of 3 or above)	A (a pIC50 value≥7.5 (IC50≤32 nM))						
C=CC(=O)N1CC[C@H](Oc2cc(-c3ccc(O)cc3)cc3[nH]nc(C#N)c23)C1 [Compound 1-45]				A (a value of 3 or above)					> 100 nM	> 100 nM	< 0.1 nM		> 100 nM	< 31.6 nM
CN(C)C/C=C/C(=O)N1CC(Oc2cc(-c3ccc(O)c(F)c3)cc3[nH]ncc23)(C(F)F)C1 [Compound 5-17]	E (a pKi value of 7 or below (Ki of 100 nM or above))	E (a pKi value of 7 or below (Ki of 100 nM or above))	B (a pKi value between 9 and 10 (Ki between 1 nM and 0.1 nM))	A (a value of 3 or above)	A (a pIC50 value≥7.5 (IC50≤32 nM))	E (a pKi value of 7 or below (Ki of 100 nM or above))								
C=CC(=O)N1CCCC(Oc2cc(-c3ccc(O)c(Cl)c3)cc3[nH]ncc23)C1 (stereo not drawn) [Compound 8-3]	D (a pKi value between 7 and 8 (Ki between 100 nM and 10 nM))	E (a pKi value of 7 or below (Ki of 100 nM or above))	B (a pKi value between 9 and 10 (Ki between 1 nM and 0.1 nM))			E (a pKi value of 7 or below (Ki of 100 nM or above))	A (a value of 3 or above)	A (a pIC50 value≥7.5 (IC50≤32 nM))						
C=CC(=O)N1CC[C@@H](Nc2cc(-c3ccc(O)cc3)cc3[nH]ncc23)[C@H](C)C1 [Compound 12-17]							B (a value of 2.3 to 3)		1 to 10 nM	> 100 nM	< 0.1 nM	< 31.6 nM	10 to 100 nM	
C=CC(=O)N1CCC(C)(Oc2cc(-c3ccc(O)cc3)cc3[nH]ncc23)CC1 [Compound 6-3]							A (a value of 3 or above)		10 to 100 nM	> 100 nM	0.1 to 1 nM	< 31.6 nM	> 100 nM	
C=CC(=O)N1CC(COc2cc(-c3ccc(O)cc3)cc3[nH]nc(C(F)(F)F)c23)C1 [Compound 18-13]							A (a value of 3 or above)		10 to 100 nM	> 100 nM	< 0.1 nM	< 31.6 nM	> 100 nM	
CN(C)C/C=C/C(=O)N1CC(F)(COc2cc(-c3ccc(O)c(F)c3)cc3[nH]ncc23)C1 [Compound 3-40]				A (a value of 3 or above)					10 to 100 nM	> 100 nM	< 0.1 nM		0.1 to 1 nM	< 31.6 nM
C=CC(=O)N1CC[C@@H](Oc2cc(-c3ccc(O)cc3)cc3[nH]ncc23)C[C@H]1C [Compound 12-29]							A (a value of 3 or above)		10 to 100 nM	> 100 nM	0.1 to 1 nM	< 31.6 nM	> 100 nM	
C=CC(=O)N1CCC(Oc2cc(-c3ccc(O)c(Cl)c3)cc3[nH]ncc23)CC1 [Compound 6-13]	D (a pKi value between 7 and 8 (Ki between 100 nM and 10 nM))	E (a pKi value of 7 or below (Ki of 100 nM or above))	B (a pKi value between 9 and 10 (Ki between 1 nM and 0.1 nM))			E (a pKi value of 7 or below (Ki of 100 nM or above))	B (a value of 2.3 to 3)	A (a pIC50 value≥7.5 (IC50≤32 nM))						
C=CC(=O)N1CC(F)(C(=O)Nc2cc(-c3ccc(O)cc3)cc3[nH]ncc23)C1 [Compound 12-48]							A (a value of 3 or above)		> 100 nM	> 100 nM	0.1 to 1 nM	< 31.6 nM	> 100 nM	
C=CC(=O)N1CC(C)(C(=O)Nc2cc(-c3ccc(O)cc3)cc3[nH]ncc23)C1 [Compound 12-68]							A (a value of 3 or above)		> 100 nM	> 100 nM	0.1 to 1 nM	200 to 1000 nM	> 100 nM	
C=CC(=O)N1CC(C(C)Oc2nc(-c3ccc(O)cc3)nc3[nH]ncc23)C1 (stereo not drawn) [Compound 3-77]				A (a value of 3 or above)					> 100 nM	> 100 nM	< 0.1 nM		> 100 nM	31.6 to 200 nM
C=CC(=O)N1CC(Oc2cc(-c3ccc(O)c(F)c3)cc3[nH]ncc23)C1 [Compound 5-6]	E (a pKi value of 7 or below (Ki of 100 nM or above))	E (a pKi value of 7 or below (Ki of 100 nM or above))	B (a pKi value between 9 and 10 (Ki between 1 nM and 0.1 nM))	A (a value of 3 or above)	B (a pIC50 value between 6.7 (included) and 7.5 (IC50 between 200 nM and 32 nM))	E (a pKi value of 7 or below (Ki of 100 nM or above))								
C=CC(=O)N1CC(OCc2cc(-c3ccc(O)cc3)cc3[nH]ncc23)C1 [Compound 12-39]							A (a value of 3 or above)		> 100 nM	> 100 nM	0.1 to 1 nM	< 31.6 nM	> 100 nM	
